Test results taken from patent US10538561B2, “Peptide for treating inflammatory diseases” (priority 2015, dated 2020).

How the values were obtained:
[1] = Solution stability in diluents; type: physicochemical; conditions: 24 hours
Description: The solution stability of peptide IS 181 was performed in four different diluents at three different temperatures for 24 hours. Four different pre-formulations of concentration 10 mg/ml were prepared and formulation assay was performed at initial and […] at room temperature.

IL-8 = assay: LPS+PMA stimulated IL-8 secretion in HaCaT; type: cell-based, Human; conditions: for IL-8 % decrease with respect to LPS + PMA / IL-8 Conc: HaCaT + LPS + PMA, 24 h
Description: Effect on pro-inflammatory cytokines against TNF-α/LPS+PMA stimulation: TNF-α; IFN-γ; TARC; TSLP; IL-6; IL-8: Cell lines: Human keratinocytes (HaCaT); test item (TI); IS181; experimental steps: pre-treatment of cells with TI for 2 hours; stimulation with TNF-α: 20 ng/ml; stimulation with LPS+PMA-10 μg/ml LPS+40 ng/ml PMA; supernatant collection for cytokine analysis after 24 hours; concentration range: 0.1 μg/ml-100 μg/ml (duplicate wells); cytokines: TNF-α; IFN-γ; TARC; TSLP; IL-6; IL-8. Method of estimating cytokines: ELISA; positive control: dexamethasone.
Cell line: HaCaT (Human Keratinocytes); TI Treatment regimen: Pretreatment for 2 h; TI Concentration range: 0.1 μg/ml-100 μg/ml (duplicate wells); TNF-α stimulation: 20 ng/ml; LPS+PMA stimulation: 10 μg/ml LPS+40 ng/ml PMA; Time point for supernatants collection: 24 h; Method of estimation: ELISA; Positive control: Dexamethasone

[2] = system: Human Keratinocytes (HaCaT); assay: In vitro combination Anthralin and IS 181 (MTT); type: cell-based; conditions: 72 h
Description: (§1) Percentage cytotoxicity was determined using MTT assay.

[3] = In vitro combination Anthralin and IS 181 (MTT); type: cell-based, Human; conditions: human, HaCaT keratinocytes, read-out: percent inhibition of cell viability/cytotoxicity
Description: as §1

PRKCA (PKC alpha) = PRKCA (PKC alpha) (Homo sapiens, UniProt P17252); assay: Biochemical kinase assay PRKCA
Description: (§2) Test system: cell free assays; test items: IS181; concentrations tested: 1 ng/ml-5000 μg/ml; Kinases: a) Cell free assays: EGFR (ErbB1); FLT1 (VEGFR1); JAK1; JAK3 MAP2K1 (MEK1); PDGFRA (PDGFR alpha); PRKCA (PKC alpha); b) cell based assay: JAK-STAT.

JAK3 = target: T1, JAK3 (Homo sapiens, UniProt P52333); assay: Biochemical kinase assay JAK3
T1 sequence (P52333 1-1124): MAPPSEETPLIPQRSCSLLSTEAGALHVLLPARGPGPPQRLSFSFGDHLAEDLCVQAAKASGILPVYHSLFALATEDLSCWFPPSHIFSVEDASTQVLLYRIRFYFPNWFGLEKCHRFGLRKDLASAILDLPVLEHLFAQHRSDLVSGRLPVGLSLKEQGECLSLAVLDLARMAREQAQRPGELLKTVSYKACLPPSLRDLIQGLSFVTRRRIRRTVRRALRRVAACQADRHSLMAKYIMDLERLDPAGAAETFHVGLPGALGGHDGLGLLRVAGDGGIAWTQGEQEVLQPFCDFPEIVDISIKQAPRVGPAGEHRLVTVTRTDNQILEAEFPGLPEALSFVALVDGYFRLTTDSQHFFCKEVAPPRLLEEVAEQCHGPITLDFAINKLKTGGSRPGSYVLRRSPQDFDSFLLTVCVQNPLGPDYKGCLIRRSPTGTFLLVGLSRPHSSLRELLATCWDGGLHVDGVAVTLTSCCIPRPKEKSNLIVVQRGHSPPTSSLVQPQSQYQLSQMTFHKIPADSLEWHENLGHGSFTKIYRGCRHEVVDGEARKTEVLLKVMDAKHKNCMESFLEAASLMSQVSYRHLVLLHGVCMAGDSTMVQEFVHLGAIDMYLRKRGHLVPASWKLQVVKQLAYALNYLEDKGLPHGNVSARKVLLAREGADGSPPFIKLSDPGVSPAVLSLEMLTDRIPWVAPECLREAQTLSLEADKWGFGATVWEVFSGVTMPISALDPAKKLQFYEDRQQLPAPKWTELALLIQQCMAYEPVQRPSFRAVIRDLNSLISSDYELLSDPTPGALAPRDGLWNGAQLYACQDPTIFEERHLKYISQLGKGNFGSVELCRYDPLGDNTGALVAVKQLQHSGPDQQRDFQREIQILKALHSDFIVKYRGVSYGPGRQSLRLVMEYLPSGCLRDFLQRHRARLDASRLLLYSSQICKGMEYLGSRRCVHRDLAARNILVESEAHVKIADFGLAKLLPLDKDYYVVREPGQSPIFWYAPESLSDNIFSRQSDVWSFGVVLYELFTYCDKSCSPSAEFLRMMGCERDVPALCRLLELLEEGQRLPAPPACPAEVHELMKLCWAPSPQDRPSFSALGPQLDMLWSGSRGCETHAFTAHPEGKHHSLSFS
Description: as §2

H-WVQRVVEKFLK-OH [IS181, H-Trp-Val-Gln-Arg-Val-Val-Glu-Lys-Phe-Leu-Lys-OH]
% Stability ([1]; 0.9% NaCl solution, 2-8° C.): 93.64% | % Stability ([1]; 0.9% NaCl solution, 37° C.): 104.94% | % Stability ([1]; 0.9% NaCl solution, Room Temperature): 101.84% | % Stability ([1]; Phosphate buffer pH 5.0, 2-8° C.): 96.53% | % Stability ([1]; Phosphate buffer pH 5.0, 37° C.): 104.05% | % Stability ([1]; Phosphate buffer pH 5.0, Room Temperature): 102.20% | % Stability ([1]; Phosphate buffer pH 7.4, 2-8° C.): 97.99% | % Stability ([1]; Phosphate buffer pH 7.4, 37° C.): 107.22% | % Stability ([1]; Phosphate buffer pH 7.4, Room Temperature): 102.41% | % Stability ([1]; Water, 2-8° C.): 94.66% | % Stability ([1]; Water, 37° C.): 98.57% | % Stability ([1]; Water, Room Temperature): 93.99% | IL-8 inhibition (IL-8; HaCaT): good extent of TSLP and IL-8 inhibition | IL-8 % decrease with respect to LPS + PMA (IL-8; 0.1 μg/ml): 8.8% | IL-8 Conc (IL-8; 0.1 μg/ml): 357.4 pg/mL | IL-8 % decrease with respect to LPS + PMA (IL-8; 1 μg/ml): 19.8% | IL-8 Conc (IL-8; 1 μg/ml): 314.5 pg/mL | IL-8 % decrease with respect to LPS + PMA (IL-8; 5 μg/ml): 4.3% | IL-8 Conc (IL-8; 5 μg/ml): 375.3 pg/mL | IL-8 % decrease with respect to LPS + PMA (IL-8; 10 μg/ml): 19.4% | IL-8 Conc (IL-8; 10 μg/ml): 316.1 pg/mL | IL-8 % decrease with respect to LPS + PMA (IL-8; 100 μg/ml): −18.1% | IL-8 Conc (IL-8; 100 μg/ml): 463.1 pg/mL | IC50 value of IS 181 ([2]; Anthralin 0 μM): 695.50 µg/mL | IC50 value of IS 181 ([2]; with Anthralin 0.01 μM): 872.80 µg/mL | IC50 value of IS 181 ([2]; with Anthralin 0.05 μM): 908.50 µg/mL | IC50 value of IS 181 ([2]; with Anthralin 0.1 μM): 677.60 µg/mL | cytotoxicity at 72 h, 10 μg/ml ([3]; IS 181 10 μg/ml alone): -10.4% | cytotoxicity at 72 h, 50 μg/ml ([3]; IS 181 50 μg/ml alone): -4.81% | cytotoxicity at 72 h, 100 μg/ml ([3]; IS 181 100 μg/ml alone): 8.16% | cytotoxicity at 72 h, 500 μg/ml ([3]; IS 181 500 μg/ml alone): 39.4% | cytotoxicity at 72 h, 1000 μg/ml ([3]; IS 181 1000 μg/ml alone): 62.4% | cytotoxicity at 72 h, 2000 μg/ml ([3]; IS 181 2000 μg/ml alone): 81.4% | cytotoxicity at 72 h, 5000 μg/ml ([3]; IS 181 5000 μg/ml alone): 94.2% | inhibition at 10 µg/mL (PRKCA (PKC alpha); 10 μg/ml): 20% | inhibition at 50 µg/mL (PRKCA (PKC alpha); cell free, 50 μg/ml): 20% | inhibition at 100 µg/mL (PRKCA (PKC alpha); cell free, 100 μg/ml): 8% | inhibition at 250 µg/mL (PRKCA (PKC alpha); cell free, 250 μg/ml): -8% | inhibition at 500 µg/mL (PRKCA (PKC alpha); cell free, 500 μg/ml): -17% | inhibition at 1000 µg/mL (PRKCA (PKC alpha); cell free, 1000 μg/ml): -19% | inhibition at 2000 µg/mL (PRKCA (PKC alpha); cell free, 2000 μg/ml): -80% | inhibition at 10 µg/mL (JAK3; 10 μg/ml): 13% | inhibition at 50 µg/mL (JAK3; cell free, 50 μg/ml): 13% | inhibition at 100 µg/mL (JAK3; cell free, 100 μg/ml): -24% | inhibition at 250 µg/mL (JAK3; cell free, 250 μg/ml): -72% | inhibition at 500 µg/mL (JAK3; cell free, 500 μg/ml): -142% | inhibition at 1000 µg/mL (JAK3; cell free, 1000 μg/ml): -198%
